Results reported in paper PMC12040169 (PLOS Biology, 2025).

Experiment: in vitro
Conditions: human, hela cells, % viability

Row | SMILES | viability at 28.5 h, 10 µM
1 | CC(C)COC(=O)CCNc1n[nH]c(=O)[nH]c1=O [CBK293920] | 86.2%
2 | O=C(Nc1ccccc1-c1nc2ccccc2[nH]1)c1ccc2c(c1)OCCO2 [CBK293924] | 104%
3 | COc1ccc(Nc2cc(-n3nc(C)cc3-c3ccccc3)ncn2)cc1 [CBK293925] | 104%
4 | CCC(=O)NC(c1ccc(OC)c(OC)c1)c1ccc2cccnc2c1O (stereo not drawn) [CBK293926] | 78%
5 | Fc1ccc(CSc2nnnn2-c2ccc3c(c2)OCO3)cc1 [CBK293927] | 85.2%
6 | O=[N+]([O-])c1cc(Nc2ncnc3ccccc23)cc(Oc2ccccc2)c1 [CBK293928] | 90.3%
7 | Cc1ccc(NC2CC(C)N(C(=O)c3cccc([N+](=O)[O-])c3)c3ccc(C)cc32)cc1 (stereo not drawn) [CBK293929] | 86.5%
8 | COc1cccc2cc(C(=O)N3CCN(CCO)CC3)c(=O)oc12 [CBK293932] | 89.5%
9 | COc1ccc(C2C=C(c3ccc(OC)c(OC)c3)Nc3ncnn32)c(OC)c1 (stereo not drawn) [CBK293934] | 93.3%
10 | COc1ccc(OCc2nc3ccccc3n2C(C)c2ccccc2)cc1 (stereo not drawn) [CBK293941] | 116%
11 | Cc1ccc(C(NC(=O)CC(C)C)c2ccc3cccnc3c2O)cc1 (stereo not drawn) [CBK293943] | 89.3%
12 | CCCC(=O)NC(c1ccc(OC)cc1)c1cc(Cl)c2cccnc2c1O (stereo not drawn) [CBK293944] | 87.4%
13 | COc1ccc(-n2c3c(cc(C(=O)Nc4ccccc4Br)c2=O)C(=O)CCC3)cc1 [CBK293945] | 95.7%
14 | CC(C)CNc1nc2c(c(=O)n(Cc3ccccc3)c(=O)n2C)n1Cc1ccccc1 [CBK293946] | 81.7%
15 | Cc1ccc(S(=O)(=O)N2CCN(C(c3ccccc3)c3ccccc3)CC2)cc1[N+](=O)[O-] [CBK293949] | 103%
16 | O=S(=O)(/N=C(/c1ccc(Cl)cc1)N1CCOCC1)c1ccccc1 [CBK293950] | 93.5%
17 | CN(C)CCCNC(=O)c1cc2c(n(-c3ccc(Cl)c(Cl)c3)c1=O)CC(C)(C)CC2=O [CBK293952] | 87.4%

Row | SMILES | viability at 28.5 h, 10 µM
18 | Cc1ccc(-c2cc(C(F)(F)F)n3ncc(C(=O)NCc4c(C)nn(C)c4C)c3n2)cc1 [CBK293956] | 106%
19 | CC(C)Oc1ccc(-c2cc(C(=O)NCc3ccncc3)c3ccccc3n2)cc1 [CBK293957] | 106%
20 | Cc1cc(OC(C)C(=O)N(Cc2cccs2)C2CCS(=O)(=O)C2)cc(C)c1Cl (stereo not drawn) [CBK293962] | 84.3%
21 | Cc1ccc2c(c1)N(CCO)/C(=C/c1sc3ccccc3[n+]1CCCS(=O)(=O)[O-])S2 [CBK293965] | 93.5%
22 | COc1cccc(C2CC(c3cccc(Cl)c3)n3nc(N)nc3N2)c1 (stereo not drawn) [CBK293966] | 85.1%
23 | COc1ccc(-n2nnnc2SCC(=O)c2ccc(O)c(O)c2)cc1 [CBK293969] | 90.3%
24 | Cc1ccc(Cn2nnc3c(O)nc(C4CCN(C(=O)CC(C)(C)C)CC4)nc32)cc1 [CBK293970] | 91.2%
25 | CCSC1=C(C#N)C(=O)NC(c2ccccc2O)S1 (stereo not drawn) [CBK293971] | 109%
26 | N#CC1=C(SCc2ccccc2)SC(c2ccc(O)c(O)c2)NC1=O (stereo not drawn) [CBK293972] | 105%
27 | Cc1coc(C)c1C(=O)CC1(O)C(=O)N(CCc2ccccc2)c2ccccc21 (stereo not drawn) [CBK293975] | 84.8%
28 | O=c1[nH]c2ccc(Oc3ccc4[nH]c(=O)c(=O)[nH]c4c3)cc2[nH]c1=O [CBK293978] | 101%
29 | Cc1nnc(SCC2=NN(c3nc4ccccc4[nH]3)C(=O)C2)s1 [CBK293979] | 108%
30 | O=C(NCc1ccc2c(c1)OCO2)c1ccc(Oc2ccccc2)cc1 [CBK293982] | 91.4%
31 | Cc1n[n+]2c(C(=O)Nc3ccc(S(=O)(=O)Nc4nccs4)cc3)c(C)[n-]n2c1[N+](=O)[O-] [CBK293983] | 83.2%
32 | CC(Oc1cccc(Cl)c1)c1nc(-c2cccs2)no1 (stereo not drawn) [CBK293984] | 90.8%
33 | CC(Oc1cccc(Br)c1)c1nc(-c2ccc(-n3cccc3)cc2)no1 (stereo not drawn) [CBK293986] | 102%
